Patent US20200384079A1, “Compositions of Fibroblast Growth Factor LIgands and Methods of Treating Patients Undergoing Ischemia-Reperfusion Therapy” (University of Cincinnati, priority 2017, published 2020)
Values joined by “and” are separate entries in the source; they are usually repeats but may differ in a detail not shown here. Equal values may be shown once. “Also recorded” adds a separate entry of the source. Read-outs that look alike come from different tables or passages of the source.

B1: FGF1^ΔHBS: FGF1 mutant carrying the K127D/K128Q/K133V triple mutation in its HS-binding region; reduced heparin-binding affinity (protein)
chain: MAEGEITTFTALTEKFNLPPGNYKKPKLLYCSNGGHFLRILPDGTVDGTRDRSDQHIQLQLSAESVGEVYIKSTETGQYLAMDTDGLLYGSQTPNEECLFLERLEENHYNTYISKKHAEKNWFVGLDQNGSCVRGPRTHYGQKAILFLPLPVSSD

How the values were obtained:
[1] = ITC of FGF interaction with Sucrose Octasulfate (SOS); assay type: binding
From the text: FIGS. 1A-1D: Structure-guided design of the FGF1^ΔHBS construct. (FIG. 1A) Expanded view of the hydrogen bonding interactions (dashed lines) between the HS-binding site of FGF2 and heparin hexasaccharide as observed in the crystal structure. FGF2 is shown as a ribbon diagram with HS-interacting residues rendered in sticks. The three FGF2 residues namely, K128, R129 and K134 that make important hydrogen bonding with HS are boxed. The corresponding three residues in FGF1 are K127, K128 and K133 which were mutated to aspartic acid, glutamine and valine, respectively, to engineer the FGF1ΔHBS construct; (FIG. 1B) FGF1^ΔHBS elutes as a single symmetric peak at its predicted molecular weight from a Superdex 200 sizing column. Retention times of protein standards are given above the chromatogram. (FIG. 1C and FIG. 1D) Analysis of the interactions of wildtype FGF1 and FGF1^ΔHBS with SOS. Indicated solutions of SOS were injected into solutions of wildtype FGF1 or FGF1ΔHBS in the cell. […]
To test the impact of the mutations on HS-binding ability of FGF1, isothermal titration calorimetry (ITC) was used to compare the interactions of native FGF1 and FGF1^ΔHBS with Sucrose Octasulfate (SOS), a known surrogate for HS. […] Next, the cardioprotective potential of FGF1^ΔHBS mutant when administered immediately upon reperfusion was evaluated in an in vivo rat model of myocardial infarction. […]

[2] = test system: in vivo rat model of myocardial infarction; assay: In vivo rat ischemia-reperfusion model, infarct size (TTC); design: species or system Sprague Dawley rats; details: for effect on infarct size / cardioprotection (in words): FGF given at reperfusion with heparin co-therapy; for effect on infarct size (in words): given at reperfusion, no heparin co-therapy; for reduction in infarct size compared to saline/vehicle control: given i.v. at reperfusion alone (FGF 10 μg/kg; heparin 12 U/kg/hr)
Description: CVR-2016-799R1 signaling and the other two sets were to evaluate the pharmacokinetic properties of native FGF1 and modified FGF1 (FGF1^ΔHBS). The first set of experiments was for the ischemia/reperfusion study in which animals were divided into six groups as follows: (1) saline group: saline treatment given intravenously for 10 minutes immediately upon reperfusion, (2) heparin group: heparin, 60 U/kg intravenous (i.v.) bolus, given immediately at reperfusion+12 U/kg/hr i.v. infusion for 120 minutes of reperfusion, (3) FGF1 group: FGF1, 10 μg/kg i.v. infusion, given for 10 minutes immediately at reperfusion, (4) FGF1+heparin: heparin, 60 U/kg bolus, given immediately upon reperfusion followed by FGF1, 10 μg/kg i.v. infusion, given for 10 minutes and 12 U/kg/hr i.v. infusion given for 110 minutes of reperfusion, (5) modified FGF1 (FGF1^ΔHBS) group: FGF1^ΔHBS, 10 μg/kg i.v. infusion, given for 10 minutes, or (6) FGF1^ΔHBS+heparin: heparin, 60 U/kg bolus, given immediately at reperfusion followed by FGF1^ΔHBS, 10 μg/kg i.v. infusion, given for 10 minutes and 12 U/kg/hr i.v. infusion for 110 minutes of reperfusion. All rats were subjected to 30 minutes of regional ischemia and 120 minutes of reperfusion. Drugs were administered at the onset of reperfusion via the jugular vein (FIG. 2A). […] A total of ninety-six rats was completed for the I/R study. Sample size for each group ranged from 9-16 depending on the power analysis. A total of thirty-five rats were excluded from the study based on the lack of cyanosis of the heart or typical elevation of the ST segment in the electrocardiogram during ischemia, and death from malignant arrhythmia. For the biodistribution or FGF1 signaling study, rats were randomly divided into six groups as described above (FIG. 2B). Following drug treatment (immediately following 15 minutes of treatment or 105 minutes post-treatment at the point which mimics the length of time of reperfusion), solid organs and blood (see sections “Tissue collection for exogenous FGF1 biodistribution” and “Cardiac preparation to detect the activation of FGF1 downstream molecules”) were collected. A total of 33 rats were used for biodistribution and FGF1 signaling studies, and 3 rats were excluded due to anesthetic overdose. Also, a total of 8 plasma samples were excluded because of hemolysis. For elimination half-life of native FGF1 and FGF1^ΔHBS, 12 rats were randomly divided into two groups and treated intraperitoneally with either FGF1 form as described in the section “Pharmacokinetic evaluation of exogenous FGF1 or FGF1^ΔHBS ”.
The in vivo I/R model was established by ligating and loosening the left anterior CVR-2016-799R1 descending artery (LAD) previously described by our laboratory. In brief, rats were anesthetized with thiobutabarbital sodium salt hydrate, Inactin® hydrate (100 mg/kg, i.p., Sigma-Aldrich), and intubated and artificially ventilated via a rodent respirator (respiratory rate: 75 strokes/minute; tidal volume: 3 mL; Model 683, Harvard, USA). The heart was exposed through a left thoracotomy and pericardiotomy, and a 6-0 silk suture was placed around the left anterior descending (LAD) coronary artery. After equilibration for 15 minutes, hearts were subjected to 30 minutes of ischemia by ligating the LAD via a snare occluder and reperfusion occurred for 120 minute via loosening the snare occluder. The appearance of cyanosis of the heart and significant ST-segment elevation in the electrocardiogram were used to verify successful ligation.
At the end of the ischemia-reperfusion injury study, the LAD was re-occluded with the suture used previously for the establishment of ischemia. 5% Evans blue dye solution was given via the jugular vein to define the area-at-risk (AAR). Then, the heart was arrested in diastole with 1 mL of 15% potassium chloride, and the animal was euthanized with an anesthetic overdose followed by a bilateral pneumothorax for removal of the heart. […]

[3] = test system: in vivo rat model of myocardial infarction
[4] = as E6 but FGF 10 μg/kg i.v. in the presence of heparin co-administration
[5] = rat, 30 min ischemia/120 min reperfusion, given i.v. at reperfusion alone (FGF 10 μg/kg; heparin 60 U/kg bolus + 12 U/kg/hr)
[6] = rat, FGF given at reperfusion with heparin
[7] = rat, given at reperfusion, no heparin co-therapy

Row | Molecule | Kd [1] | infarct size (% infarct, percentage of area-at-risk) [2, 4] | infarct size (% infarct, percentage of area-at-risk) [2, 5] | effect on infarct size / cardioprotection (in words) ([2]; rat, listed as native FGF1) | effect on infarct size (in words) ([2]; rat) | reduction in infarct size compared to saline/vehicle control ([2]; rat) | reduction in infarct size compared to saline/vehicle control ([2]; rat, listed as native FGF1) | recovery of contractility (+dP/dt at 120 minutes post-reperfusion normalized to baseline) ([3]; rat, FGF1 10 μg/kg i.v. at reperfusion, no heparin) | post-ischemic cardiac function (in words) [3, 6] | post-ischemic cardiac function (in words) [3, 7] | binding to SOS (in words) [1] | effect on infarct size / cardioprotection (in words) ([2]; rat) | fold more efficacious in reducing infarct size than native FGF1 ([2]; rat, same dose at reperfusion) | heart rate compared to the saline group (in words) ([3]; rat I/R study)
1 | FGF1: native recombinant human fibroblast growth factor 1 | 4 µM | 42% | 35% | markedly attenuated in the presence of heparin; also recorded: lower in the presence of heparin | significantly reduced infarct size compared to saline | 31% | 39% and 31% | 69% | reduced the post-ischemic improvement of cardiac function | improved relaxation compared to saline treatment |  |  |  | 
2 | B1 |  | 32% | 22% |  | marked reduction in infarct size compared to the native form of FGF1; also recorded: markedly lowered infarct size compared to FGF1 | 62% and 60% |  |  | improved post-ischemic cardiac function, even in the presence of heparin | significantly improved compared to the native FGF1 cohorts; also recorded: significantly improved post-ischemic cardiac function compared to native FGF1; also recorded: greater improvement in cardiac function compared to FGF1 | negligible; also recorded: fails to bind SOS | minor, and no statistically significant, inhibition; also recorded: did not reduce the cardioprotective effect; also recorded: not altered in the presence of heparin | ~2 fold | no significant differences in heart rate
